# Source: PubChem BioAssay (NCI)
#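 96-well plates; 48 h exposure; 5 concentrations. Endpoints by linear interpolation between flanking doses. Not reached: highest tested concentration assigned. Here, GI50 denotes the concentration required for 50% inhibition of growth. TGI: concentration producing complete growth inhibition.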
# What was measured:
# Assay in all cases: NCI tumour cell line growth inhibition, 48 h
# BT-549 breast = tested on: BT-549 breast
# SNB-75 CNS = tested on: SNB-75 CNS
# HS 578T breast = tested on: HS 578T breast
# 786-0 renal = tested on: 786-0 renal
# A549 NSCLC = tested on: A549 NSCLC
# EKVX NSCLC = tested on: EKVX NSCLC
# HCT-116 colon = tested on: HCT-116 colon
# SK-MEL-28 melanoma = tested on: SK-MEL-28 melanoma
# ACHN renal = tested on: ACHN renal
# SK-MEL-2 melanoma = tested on: SK-MEL-2 melanoma
# SR leukemia = tested on: SR leukemia
# M14 melanoma = tested on: M14 melanoma
# RXF 393 renal = tested on: RXF 393 renal
# CAKI-1 renal = tested on: CAKI-1 renal
# OVCAR-3 ovarian = tested on: OVCAR-3 ovarian
# OVCAR-5 ovarian = tested on: OVCAR-5 ovarian
# COLO 205 colon = tested on: COLO 205 colon
# KM12 colon = tested on: KM12 colon
# OVCAR-4 ovarian = tested on: OVCAR-4 ovarian
# PC-3 prostate = tested on: PC-3 prostate
# UACC-62 melanoma = tested on: UACC-62 melanoma
# SK-MEL-5 melanoma = tested on: SK-MEL-5 melanoma
# NCI-H522 lung = tested on: NCI-H522 lung
# SN12C renal = tested on: SN12C renal
# NCI-H460 lung = tested on: NCI-H460 lung
# U251 CNS = tested on: U251 CNS
# CCRF-CEM leukemia = tested on: CCRF-CEM leukemia
# SF-539 CNS = tested on: SF-539 CNS
# UACC-257 melanoma = tested on: UACC-257 melanoma
# TK-10 renal = tested on: TK-10 renal
# HL-60(TB) leukemia = tested on: HL-60(TB) leukemia
# HT29 colon = tested on: HT29 colon
# MALME-3M melanoma = tested on: MALME-3M melanoma
# SW-620 colon = tested on: SW-620 colon
# T-47D breast = tested on: T-47D breast
# HCT-15 colon = tested on: HCT-15 colon
# UO-31 renal = tested on: UO-31 renal
# MDA-MB-231 breast = tested on: MDA-MB-231 breast
# HOP-62 NSCLC = tested on: HOP-62 NSCLC
# LOX IMVI melanoma = tested on: LOX IMVI melanoma
# OVCAR-8 ovarian = tested on: OVCAR-8 ovarian
# SF-268 CNS = tested on: SF-268 CNS
# DU-145 prostate = tested on: DU-145 prostate
# A498 renal = tested on: A498 renal
# SK-OV-3 ovarian = tested on: SK-OV-3 ovarian
# NCI-H23 lung = tested on: NCI-H23 lung
# HCC-2998 colon = tested on: HCC-2998 colon
# IGROV1 ovarian = tested on: IGROV1 ovarian
# NCI/ADR-RES ovarian = tested on: NCI/ADR-RES ovarian
# HOP-92 NSCLC = tested on: HOP-92 NSCLC
# SNB-19 CNS = tested on: SNB-19 CNS
# MCF7 breast = tested on: MCF7 breast
# K-562 leukemia = tested on: K-562 leukemia
# NCI-H226 lung = tested on: NCI-H226 lung
# MOLT-4 leukemia = tested on: MOLT-4 leukemia
# SF-295 CNS = tested on: SF-295 CNS
# RPMI-8226 leukemia = tested on: RPMI-8226 leukemia
compound,measurement,setting,value
CSCCC(NC(=O)CNC(=O)C(CC(=O)O)NC(=O)C(NC(=O)C(NC(=O)C(NC(=O)CNC(=O)C(CCC(N)=O)NC(=O)C(CCSC)NC(=O)C(CC(=O)O)NC(=O)C(C)NC(=O)C(C)NC(=O)C(NC(=O)C(CO)NC(=O)C(N)CC(C)C)C(C)O)C(C)C)C(C)C)C(C)O)C(=O)NC(C)C(=O)NC(CO)C(=O)NCC(=O)NC(CC(C)C)C(=O)NC(CC(=O)O)C(=O)NC(CCCCN)C(=O)NC(CC(=O)O)C(=O)NC(Cc1ccc(O)cc1)C(=O)NC(CC(C)C)C(=O)NC(CCCCN)C(=O)N1CCCC1C(=O)NC(CC(=O)O)C(=O)NC(CC(=O)O)C(=O)O (centres undefined),GI50,BT-549 breast,> 82.5 µM
same,TGI,BT-549 breast,> 82.5 µM
same,GI50,SNB-75 CNS,> 82.5 µM
same,TGI,SNB-75 CNS,> 82.5 µM
same,GI50,HS 578T breast,> 82.5 µM
same,TGI,HS 578T breast,> 82.5 µM
same,GI50,786-0 renal,> 82.5 µM
same,TGI,786-0 renal,> 82.5 µM
same,GI50,A549 NSCLC,> 82.5 µM
same,TGI,A549 NSCLC,> 82.5 µM
same,GI50,EKVX NSCLC,> 82.5 µM
same,TGI,EKVX NSCLC,> 82.5 µM
same,GI50,HCT-116 colon,> 82.5 µM
same,TGI,HCT-116 colon,> 82.5 µM
same,GI50,SK-MEL-28 melanoma,> 82.5 µM
same,TGI,SK-MEL-28 melanoma,> 82.5 µM
same,GI50,ACHN renal,> 82.5 µM
same,TGI,ACHN renal,> 82.5 µM
same,GI50,SK-MEL-2 melanoma,> 82.5 µM
same,TGI,SK-MEL-2 melanoma,> 82.5 µM
same,GI50,SR leukemia,> 82.5 µM
same,TGI,SR leukemia,> 82.5 µM
same,GI50,M14 melanoma,> 82.5 µM
same,TGI,M14 melanoma,> 82.5 µM
same,GI50,RXF 393 renal,> 82.5 µM
same,TGI,RXF 393 renal,> 82.5 µM
same,GI50,CAKI-1 renal,> 82.5 µM
same,TGI,CAKI-1 renal,> 82.5 µM
same,GI50,OVCAR-3 ovarian,> 82.5 µM
same,TGI,OVCAR-3 ovarian,> 82.5 µM
same,GI50,OVCAR-5 ovarian,> 82.5 µM
same,TGI,OVCAR-5 ovarian,> 82.5 µM
same,GI50,COLO 205 colon,> 82.5 µM
same,TGI,COLO 205 colon,> 82.5 µM
same,GI50,KM12 colon,> 82.5 µM
same,TGI,KM12 colon,> 82.5 µM
same,GI50,OVCAR-4 ovarian,> 82.5 µM
same,TGI,OVCAR-4 ovarian,> 82.5 µM
same,GI50,PC-3 prostate,> 82.5 µM
same,TGI,PC-3 prostate,> 82.5 µM
same,GI50,UACC-62 melanoma,> 82.5 µM
same,TGI,UACC-62 melanoma,> 82.5 µM
same,GI50,SK-MEL-5 melanoma,> 82.5 µM
same,TGI,SK-MEL-5 melanoma,> 82.5 µM
same,GI50,NCI-H522 lung,> 82.5 µM
same,TGI,NCI-H522 lung,> 82.5 µM
same,GI50,SN12C renal,> 82.5 µM
same,TGI,SN12C renal,> 82.5 µM
same,GI50,NCI-H460 lung,> 82.5 µM
same,TGI,NCI-H460 lung,> 82.5 µM
same,GI50,U251 CNS,> 82.5 µM
same,TGI,U251 CNS,> 82.5 µM
same,GI50,CCRF-CEM leukemia,> 82.5 µM
same,TGI,CCRF-CEM leukemia,> 82.5 µM
same,GI50,SF-539 CNS,> 82.5 µM
same,TGI,SF-539 CNS,> 82.5 µM
same,GI50,UACC-257 melanoma,> 82.5 µM
same,TGI,UACC-257 melanoma,> 82.5 µM
same,GI50,TK-10 renal,> 82.5 µM
same,TGI,TK-10 renal,> 82.5 µM
same,GI50,HL-60(TB) leukemia,> 82.5 µM
same,TGI,HL-60(TB) leukemia,> 82.5 µM
same,GI50,HT29 colon,> 82.5 µM
same,TGI,HT29 colon,> 82.5 µM
same,GI50,MALME-3M melanoma,> 82.5 µM
same,TGI,MALME-3M melanoma,> 82.5 µM
same,GI50,SW-620 colon,> 82.5 µM
same,TGI,SW-620 colon,> 82.5 µM
same,GI50,T-47D breast,> 82.5 µM
same,TGI,T-47D breast,> 82.5 µM
same,GI50,HCT-15 colon,> 82.5 µM
same,TGI,HCT-15 colon,> 82.5 µM
same,GI50,UO-31 renal,> 82.5 µM
same,TGI,UO-31 renal,> 82.5 µM
same,GI50,MDA-MB-231 breast,> 82.5 µM
same,TGI,MDA-MB-231 breast,> 82.5 µM
same,GI50,HOP-62 NSCLC,> 82.5 µM
same,TGI,HOP-62 NSCLC,> 82.5 µM
same,GI50,LOX IMVI melanoma,> 82.5 µM
same,TGI,LOX IMVI melanoma,> 82.5 µM
same,GI50,OVCAR-8 ovarian,> 82.5 µM
same,TGI,OVCAR-8 ovarian,> 82.5 µM
same,GI50,SF-268 CNS,> 82.5 µM
same,TGI,SF-268 CNS,> 82.5 µM
same,GI50,DU-145 prostate,> 82.5 µM
same,TGI,DU-145 prostate,> 82.5 µM
same,GI50,A498 renal,> 82.5 µM
same,TGI,A498 renal,> 82.5 µM
same,GI50,SK-OV-3 ovarian,> 82.5 µM
same,TGI,SK-OV-3 ovarian,> 82.5 µM
same,GI50,NCI-H23 lung,> 82.5 µM
same,TGI,NCI-H23 lung,> 82.5 µM
same,GI50,HCC-2998 colon,> 82.5 µM
same,TGI,HCC-2998 colon,> 82.5 µM
same,GI50,IGROV1 ovarian,> 82.5 µM
same,TGI,IGROV1 ovarian,> 82.5 µM
same,GI50,NCI/ADR-RES ovarian,> 82.5 µM
same,TGI,NCI/ADR-RES ovarian,> 82.5 µM
same,GI50,HOP-92 NSCLC,> 82.5 µM
same,TGI,HOP-92 NSCLC,> 82.5 µM
same,GI50,SNB-19 CNS,> 82.5 µM
same,TGI,SNB-19 CNS,> 82.5 µM
same,GI50,MCF7 breast,> 82.5 µM
same,TGI,MCF7 breast,> 82.5 µM
same,GI50,K-562 leukemia,> 82.5 µM
same,TGI,K-562 leukemia,> 82.5 µM
same,GI50,NCI-H226 lung,> 82.5 µM
same,TGI,NCI-H226 lung,> 82.5 µM
same,GI50,MOLT-4 leukemia,> 82.5 µM
same,TGI,MOLT-4 leukemia,> 82.5 µM
same,GI50,SF-295 CNS,> 82.5 µM
same,TGI,SF-295 CNS,> 82.5 µM
same,GI50,RPMI-8226 leukemia,> 82.5 µM
same,TGI,RPMI-8226 leukemia,> 82.5 µM
